Data reported in patent publication US4454290A, “Stevioside analogs” (Dynapol, priority 1981, dated 1984).
Structures can show the parent of a compound that is named as a salt.

Tests used:
[1] = Taste test by a group of volunteers / sensory comparison; assay type: in vivo; details: for Pm, potency compared to sucrose = 1, molar basis / Pw, potency compared to sucrose = 1, weight basis / Taste Character, Bitter / Taste Character, Other / Taste Character, Salty / Taste Character, Sour / Taste Character, Sweet / Taste Character, Sweet/bitter, other: 12 judgements, stevioside 500 ppm, Example 1 534 ppm, saccharin 330 ppm; for taste of the material: concentration not given
Description: Steviolbioside, 3-sulfopropyl ester, potassium salt prepared in Part B. was dissolved in distilled water at a concentration of 0.2 wt% and tasted by a group of volunteers. […] The solution was diluted to 0.0534 wt% and retasted.

[2] = as above; assay type: in vivo; details: for Ip, sample intensity relative to 10% sucrose: mean value(2 Sm), 12 judgements, stevioside 500 ppm, Example 1 534 ppm, saccharin 330 ppm
ATP synthetase = details: in cell mitochondria; Vignais 1966; cited from earlier work
[3] = Dorfman et al.; cited from earlier work
[4] = likelihood suggested by Wingard et al., 1980; cited from earlier work
[5] = Stability test: anaerobic incubation with fresh rat cecal contents, 37° C.; assay type: in vitro ADME
Description: An important property of these stevioside analogs is their stability and resistance to conversion to steviol at the conditions of the mammalian gastrointestinal tract. […] At these conditions, no degradation to steviol occurs to a limit of detection of 0.13%.
Steviolbioside, 3-sulfopropyl ester, potassium salt prepared in Part B. was incubated anaerobically for three days at 37° C. with 5 wt% fresh rat cecal contents, at concentrations of 0.25, 0.5, and 1.0 mg/ml in sterile Krebs-Ringer 0.25M phosphate buffer (pH 7.4) containing 0.25 mg/ml dithiothreitol and 0.25 mg/ml α-D-glucose. […] No steviol (Rf =0.95; tR =31.3 min) was detected. After 3 days the bacterial cells were sedimented by centrifugation. The sediment was extracted (THF), as was the supernatant, after lyophilization. […] With a detection limit of […], as little as 0.03 and 0.13 percent degradation to steviol could have been detected for the sediment and supernatant fractions, respectively.

[6] = Use in comestibles (taste of sweetened beverages and gelatin); assay type: in vivo
Description: Based on the results of Part D, one can employ the compound of Part B as a sweetener for comestibles. In exemplary uses 0.08% by weight of the compound is dissolved in an unsweetened cola beverage, a like concentration of the compound is added to an unsweetened lemonade and to coffee. […] In two other cases, 0.04% by weight is added to coffee along with 0.02% by weight of saccharin and 3% by weight of sucrose, respectively. […] B.
Cups of coffee are prepared: To each is added 500 ppm by weight, basis solution, of one of each of the sweeteners prepared in Examples II-VIII. The coffees present a sweetened taste when sampled.
Gelatin, food color and fruit flavor are dissolved in water at levels suitable for forming a jelled food product. The solution is not sweet. The materials of Claims II-VIII are each added to separate samples in amounts of 600 ppm and the samples are cast into jelled products. The resulting gelatin products are sweet.

[7] = Wingard et al., Experientia; cited from earlier work
[8] = Bridel et al., cited from earlier work
[9] = likelihood suggested by Wingard et al., 1980; cited from earlier work; remark: listed apart in the source
[10] = 1000 ppm by weight in distilled water
[11] = compared with material of Example I

Structure (SMILES) | Pm, potency compared to sucrose = 1, molar basis [1] | Pw, potency compared to sucrose = 1, weight basis [1] | Taste Character, Bitter [1] | Taste Character, Other [1] | Taste Character, Salty [1] | Taste Character, Sour [1] | Taste Character, Sweet [1] | Taste Character, Sweet/bitter, other [1] | Ip, sample intensity relative to 10% sucrose [2] | taste of the material [1] | further results
O=C1NS(=O)(=O)c2ccccc21 [Saccharin, saccharin, reference compound] | 180(20) | 300(30) | 12(8) % | 3(2) % | 0(0) % | 0(0) % | 85(6) % | 85/15 | 0.98(0.09) | – | –
C=C1C[C@@]23CC[C@H]4[C@@](C)(CCC[C@@]4(C)C(=O)OCCC(S(=O)(=O)O)S(=O)(=O)O)[C@@H]2CC[C@]1(O[C@@H]1O[C@H](CO)[C@@H](O)[C@H](O)[C@H]1O[C@@H]1O[C@H](CO)[C@@H](O)[C@H](O)[C@H]1O)C3 [VIII] | – | – | – | – | – | – | – | – | – | – | sweetness intensity equal to sucrose solution [1, 10]: 10-12 % sucrose; taste of solution [2, 10]: exceedingly sweet
C=C1C[C@@]23CC[C@H]4[C@@](C)(CCC[C@@]4(C)C(=O)O)[C@@H]2CC[C@]1(O)C3 [steviol] | – | – | – | – | – | – | – | – | – | – | inhibition of ATP synthetase compared with atractyligenin (ATP synthetase): even more potent inhibitor of ATP synthetase; antiandrogenic effects [3]: antiandrogenic effects; absorption through the gastrointestinal tract wall [4]: completely absorbed
C=C1C[C@@]23CC[C@H]4[C@@](C)(CCC[C@@]4(C)C(=O)OCCCS(=O)(=O)O)[C@@H]2CC[C@]1(O[C@@H]1O[C@H](CO)[C@@H](O)[C@H](O)[C@H]1O[C@@H]1O[C@H](CO)[C@@H](O)[C@H](O)[C@H]1O)C3 [Example I, Steviolbioside, 3-sulfopropyl ester, potassium salt] | 360(20) | 160(10) | 4(6) % | 4(4) % | 0(0) % | 0(0) % | 92(6) % | 92/8 | 0.84(0.06) | – | time within which all the initial ester was consumed ([5]; 5 wt% fresh rat cecal contents, 0.25, 0.5 and 1.0 mg/ml, pH 7.4, 37° C., anaerobic, TLC and HPLC): ≤ 24 h; steviol in THF extracts (HPLC) ([5]; after 3 days, sediment and supernatant extracts): none to be detectable; steviol detected (TLC and HPLC of incubation) ([5]; rat cecal contents, 37° C.): No steviol; degradation product formed ([5]; rat cecal contents, within 24 h, TLC and HPLC): apparently only the sulfopropyl ester of steviol; taste quality ([1]; 0.0534 wt%): very sucrose-like, having negligible off-flavors; sweetness equivalent ([1]; 0.0534 wt% in distilled water): 8-9 wt% sucrose; taste of solution ([1]; 0.2 wt% in distilled water): very intense sweet taste; taste compared with saccharin and stevioside ([1]; Table II): superior to the tastes of saccharin and stevioside itself; sweetness in comestibles, with co-sweetener ([6]; 0.04% by weight in coffee with 0.02% saccharin or 3% sucrose): sweetness is imparted; sweetness in comestibles ([6]; 0.08% by weight in unsweetened cola, unsweetened lemonade and coffee): sweetness is imparted
C=C1C[C@@]23CC[C@H]4[C@@](C)(CCC[C@@]4(C)C(=O)OC(CCC(=O)O)C(=O)O)[C@@H]2CC[C@]1(O[C@@H]1O[C@H](CO)[C@@H](O)[C@H](O)[C@H]1O[C@@H]1O[C@H](CO)[C@@H](O)[C@H](O)[C@H]1O)C3 (some centres unmarked) [V] | – | – | – | – | – | – | – | – | – | sweet | –
C=C1C[C@@]23CC[C@H]4[C@@](C)(CCC[C@@]4(C)C(=O)OCCCS(=O)(=O)O)[C@@H]2CC[C@]1(O[C@@H]1O[C@H](CO)[C@@H](O)[C@H](O)[C@H]1O[C@@H]1O[C@H](CO)[C@@H](O)[C@H](O)[C@H]1O)C3 [II, steviolbioside, 3-sulfopropyl ester, sodium salt] | – | – | – | – | – | – | – | – | – | – | stability properties evaluated as in Part C of Example I [5, 11]: same advantageous properties; taste properties evaluated as in Part D of Example I [1, 11]: same advantageous properties; use in comestibles evaluated as in Part E of Example I [6, 11]: same advantageous properties
C=C1C[C@@]23CC[C@H]4[C@@](C)(CCC[C@@]4(C)C(=O)OCCC(N)C(=O)O)[C@@H]2CC[C@]1(O[C@@H]1O[C@H](CO)[C@@H](O)[C@H](O)[C@H]1O[C@@H]1O[C@H](CO)[C@@H](O)[C@H](O)[C@H]1O)C3 (some centres unmarked) [VI] | – | – | – | – | – | – | – | – | – | sweet and sucrose like | –
C=C1C[C@@]23CC[C@H]4[C@@](C)(CCC[C@@]4(C)C(=O)OCCCCS(=O)(=O)O)[C@@H]2CC[C@]1(O[C@@H]1O[C@H](CO)[C@@H](O)[C@H](O)[C@H]1O[C@@H]1O[C@H](CO)[C@@H](O)[C@H](O)[C@H]1O)C3 [III, steviolbioside, 4-sulfobutyl ester, sodium salt] | – | – | – | – | – | – | – | – | – | sweet, like the material of Example I | –
C=C1C[C@@]23CC[C@H]4[C@@](C)(CCC[C@@]4(C)C(=O)OCC(=O)O)[C@@H]2CC[C@]1(O[C@@H]1O[C@H](CO)[C@@H](O)[C@H](O)[C@H]1O[C@@H]1O[C@H](CO)[C@@H](O)[C@H](O)[C@H]1O)C3 [VII, steviolbioside, carboxymethyl ester, sodium salt] | – | – | – | – | – | – | – | – | – | sweet | –
C=C1C[C@@]23CC[C@H]4[C@@](C)(CCC[C@@]4(C)C(=O)O[C@@H]4O[C@H](CO)[C@@H](O)[C@H](O)[C@H]4O)[C@@H]2CC[C@]1(O[C@@H]1O[C@H](CO)[C@@H](O)[C@H](O)[C@H]1O[C@@H]1O[C@H](CO)[C@@H](O)[C@H](O)[C@H]1O)C3 [Stevioside, stevioside] | 440(30) | 190(10) | 30(10) % | 8(5) % | 0(0) % | 0(0) % | 62(10) % | 62/38 | 0.94(0.06) | – | degradation to steviol [7]: essentially quantitative degradation to steviol; sweetness relative to sucrose [8]; 1931: about 300 times as sweet as sucrose; bitterness of taste [8]: substantial degree of bitterness; conversion to steviol in vivo [9]: largely converted to steviol in vivo
